Read-outs that look alike come from different tables or passages of the source.
What was measured:
[1] = tested on: PFHR-9 cells; experiment: Collagen IV sulfilimine crosslink formation in PFHR-9 cell culture (NC1 hexamer, SDS-PAGE); type: cell-based, mouse; conditions: inhibitor present during cellular deposition of basement membrane; FIG. 2A: PHG 50 μM, MMI 1 mM, KI 10 mM, 3-AT 10 mM, BAPN 500 μM, putrescine 2.5 mM
[2] = biological target: T1, thyroid peroxidase (Homo sapiens, UniProt P07202); conditions: cited from earlier work
T1 sequence (P07202 19-933): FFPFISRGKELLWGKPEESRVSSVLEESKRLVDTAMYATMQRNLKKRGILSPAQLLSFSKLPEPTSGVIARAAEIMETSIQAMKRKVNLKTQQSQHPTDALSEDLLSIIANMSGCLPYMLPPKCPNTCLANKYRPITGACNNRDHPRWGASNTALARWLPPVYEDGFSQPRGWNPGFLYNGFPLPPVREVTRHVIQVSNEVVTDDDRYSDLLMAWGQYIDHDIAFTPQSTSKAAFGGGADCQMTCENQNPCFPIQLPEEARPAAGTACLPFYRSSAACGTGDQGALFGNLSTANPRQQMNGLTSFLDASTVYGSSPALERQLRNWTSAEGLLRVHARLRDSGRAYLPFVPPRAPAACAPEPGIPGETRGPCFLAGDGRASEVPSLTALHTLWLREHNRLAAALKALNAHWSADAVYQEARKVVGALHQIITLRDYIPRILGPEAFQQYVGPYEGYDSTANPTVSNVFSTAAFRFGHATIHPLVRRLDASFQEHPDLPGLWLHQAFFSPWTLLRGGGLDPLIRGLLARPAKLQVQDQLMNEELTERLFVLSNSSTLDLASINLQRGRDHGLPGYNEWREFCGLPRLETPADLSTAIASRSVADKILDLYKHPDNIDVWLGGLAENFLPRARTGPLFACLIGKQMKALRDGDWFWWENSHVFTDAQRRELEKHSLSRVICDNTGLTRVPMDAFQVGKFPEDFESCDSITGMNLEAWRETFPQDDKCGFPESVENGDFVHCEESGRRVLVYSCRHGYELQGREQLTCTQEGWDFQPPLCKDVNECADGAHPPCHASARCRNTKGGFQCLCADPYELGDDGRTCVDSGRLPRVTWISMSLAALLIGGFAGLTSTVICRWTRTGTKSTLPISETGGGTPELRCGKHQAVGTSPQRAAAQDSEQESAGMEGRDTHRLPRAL

[3] = biological target: T2, myeloperoxidase (Homo sapiens, UniProt P05164); conditions: cited from earlier work
T2 sequence (P05164 49-745): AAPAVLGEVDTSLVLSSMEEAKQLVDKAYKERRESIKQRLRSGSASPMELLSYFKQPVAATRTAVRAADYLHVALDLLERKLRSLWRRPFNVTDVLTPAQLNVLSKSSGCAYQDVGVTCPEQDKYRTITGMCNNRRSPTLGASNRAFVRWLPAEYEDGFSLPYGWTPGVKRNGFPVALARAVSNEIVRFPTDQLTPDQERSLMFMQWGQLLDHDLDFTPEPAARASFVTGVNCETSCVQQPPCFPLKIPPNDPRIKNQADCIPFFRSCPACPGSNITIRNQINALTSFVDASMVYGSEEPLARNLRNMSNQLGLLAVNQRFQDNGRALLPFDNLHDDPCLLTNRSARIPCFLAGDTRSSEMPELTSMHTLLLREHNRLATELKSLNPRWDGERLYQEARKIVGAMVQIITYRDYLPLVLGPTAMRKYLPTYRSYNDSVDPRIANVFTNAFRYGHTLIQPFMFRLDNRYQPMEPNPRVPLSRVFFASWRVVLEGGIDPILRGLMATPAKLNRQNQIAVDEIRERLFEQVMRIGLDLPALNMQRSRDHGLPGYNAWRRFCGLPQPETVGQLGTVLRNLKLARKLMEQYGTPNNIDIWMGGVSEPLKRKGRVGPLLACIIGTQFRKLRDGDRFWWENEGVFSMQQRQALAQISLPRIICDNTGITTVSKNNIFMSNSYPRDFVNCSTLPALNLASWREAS

[4] = biological target: horseradish peroxidase (HRP) (Armoracia rusticana, UniProt P00433); conditions: with H2O2; cited from earlier work
Chain of horseradish peroxidase (HRP) (P00433 31-338 limits assumed): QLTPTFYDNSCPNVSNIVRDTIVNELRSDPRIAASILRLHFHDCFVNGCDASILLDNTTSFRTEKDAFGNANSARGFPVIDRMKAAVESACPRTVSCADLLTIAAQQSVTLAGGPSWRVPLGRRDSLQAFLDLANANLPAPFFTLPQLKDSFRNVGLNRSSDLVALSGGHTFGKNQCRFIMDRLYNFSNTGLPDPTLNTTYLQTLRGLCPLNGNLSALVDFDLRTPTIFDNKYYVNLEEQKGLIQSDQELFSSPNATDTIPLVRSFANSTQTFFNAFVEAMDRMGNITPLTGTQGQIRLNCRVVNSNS

[5] = biological target: peroxidase (Drosophila melanogaster, UniProt Q9VZZ4); conditions: Nelson et al., 1994; read-out: half-maximum inhibitory concentration (IC50); cited from earlier work
Chain of peroxidase (Q9VZZ4 24-1527): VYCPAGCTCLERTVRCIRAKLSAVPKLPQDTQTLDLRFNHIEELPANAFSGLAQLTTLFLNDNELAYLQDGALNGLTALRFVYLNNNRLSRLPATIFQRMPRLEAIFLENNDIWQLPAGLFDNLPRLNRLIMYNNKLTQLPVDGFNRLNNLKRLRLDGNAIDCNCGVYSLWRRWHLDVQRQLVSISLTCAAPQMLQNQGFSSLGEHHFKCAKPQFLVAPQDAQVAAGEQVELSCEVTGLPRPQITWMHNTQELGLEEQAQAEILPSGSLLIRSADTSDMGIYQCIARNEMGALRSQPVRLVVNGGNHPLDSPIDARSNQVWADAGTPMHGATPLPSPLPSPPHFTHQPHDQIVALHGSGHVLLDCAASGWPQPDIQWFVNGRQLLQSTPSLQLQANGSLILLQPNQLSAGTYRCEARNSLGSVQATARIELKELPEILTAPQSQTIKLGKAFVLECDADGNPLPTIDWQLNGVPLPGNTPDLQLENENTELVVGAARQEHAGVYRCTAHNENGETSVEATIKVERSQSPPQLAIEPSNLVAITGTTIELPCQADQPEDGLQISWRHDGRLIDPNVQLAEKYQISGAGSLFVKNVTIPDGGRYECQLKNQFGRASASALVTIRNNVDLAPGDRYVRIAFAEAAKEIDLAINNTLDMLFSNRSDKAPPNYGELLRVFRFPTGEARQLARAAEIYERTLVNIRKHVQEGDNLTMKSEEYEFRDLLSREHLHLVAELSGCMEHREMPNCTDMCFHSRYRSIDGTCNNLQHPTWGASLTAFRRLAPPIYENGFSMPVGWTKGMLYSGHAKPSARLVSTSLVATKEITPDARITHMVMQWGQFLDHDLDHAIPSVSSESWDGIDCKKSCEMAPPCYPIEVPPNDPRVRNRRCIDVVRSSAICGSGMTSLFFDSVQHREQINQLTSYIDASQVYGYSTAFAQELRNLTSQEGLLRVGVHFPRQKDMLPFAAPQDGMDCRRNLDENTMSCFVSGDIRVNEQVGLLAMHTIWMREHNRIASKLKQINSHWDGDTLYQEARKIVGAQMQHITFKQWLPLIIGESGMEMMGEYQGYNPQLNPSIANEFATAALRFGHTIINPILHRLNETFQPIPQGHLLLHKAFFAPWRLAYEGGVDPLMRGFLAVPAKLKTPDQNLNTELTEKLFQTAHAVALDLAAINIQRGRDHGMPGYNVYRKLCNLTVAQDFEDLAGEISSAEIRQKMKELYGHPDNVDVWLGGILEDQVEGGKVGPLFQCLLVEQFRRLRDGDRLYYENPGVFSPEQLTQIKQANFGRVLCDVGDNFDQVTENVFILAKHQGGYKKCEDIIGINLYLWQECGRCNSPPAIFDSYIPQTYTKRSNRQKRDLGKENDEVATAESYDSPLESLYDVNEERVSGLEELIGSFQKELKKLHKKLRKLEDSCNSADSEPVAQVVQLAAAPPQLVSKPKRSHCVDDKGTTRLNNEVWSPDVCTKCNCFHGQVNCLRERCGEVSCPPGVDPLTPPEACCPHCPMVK

[6] = tested on: PFHR-9 basement membrane collagen IV; experiment: HEK293 cell overlay on uncrosslinked PFHR-9 collagen IV networks; type: cell-based, mouse; conditions: HEK293 cells plated on uncrosslinked PFHR-9 basement membrane; PHG 50 μM where present
Experimental: FIGS. 5A-D—Peroxidasin uniquely crosslinks native collagen IV networks. (FIG. 5A) Experimental design of ‘overlay’ experiments. PFHR-9 cells were grown in the presence of phloroglucinol (PHG; 50 μM) to deposit uncrosslinked collagen IV (Col IV) networks. The cells were then removed, and the basement membrane was extracted with 4 M guanidine (Gdn) to inactivate endogenous peroxidasin. Cells stably transfected with human peroxidasin (PXDN) or untransfected HEK293 cells (WT HEK) were plated on top of the PFHR9 basement membrane, which was subsequently analyzed for collagen IV crosslink content. (FIG. 5B) Collagen IV-sulfilimine bond formation in the indicated experimental conditions as shown by stained SDS-PAGE gel. Two (WT HEK cells) or three (PXDN, with or without PHG) out of five independent experiments are shown. MW, molecular weight. (FIG. 5C) Coomassie blue-stained gel of collagen IVNC1 hexamers isolated from uncrosslinked PFHR-9 basement membrane overlaid with HEK293T cells transiently transfected with human peroxidasin cDNA, mouse myeloperoxidase cDNA (MPO), mouse lactoperoxidase cDNA (LPO) or empty vector (Mock). […]
PFHR-9 cells were grown in the presence of 50 μM phloroglucinol to produce noncrosslinked collagen IV. […] Plates were incubated for 24-48 h, and collagen IV was analyzed for NC1 crosslink formation. […]

[7] = tested on: Drosophila eggs; conditions: PHG in the food, excess dietary (100 μM) Br^−
Experimental: All eggs deposited in a quadrant of a 55 mm laying cage were moved to a fresh phytagel surface and oriented with dorsal appendages facing the surface for quantitation of the aspect ratio which is calculated by dividing the anterior-posterior axis length by the egg's diameter. Eggs were collected after 168 hours of exposure to standard or experimental diets.
(FIG. 18B) Br^− concentration effect on egg aspect ratio, in single age-matched cohort of w^1118 flies, over time. Vertical axis represents mean aspect ratio (±S.E.M). […] Inset plotted as mean±95% C.I. and significance calculated with the Kruskall-Wallis test. […] PHG was administered in the food. All wild-type (w^1118) mothers were from the same cohort and reared identically, then divided into sub-cohorts for exposure to the indicated experimental diet.

[8] = tested on: transglutaminase; conditions: Candi et al., 1995; cited from earlier work
[9] = biological target: T3, Lysyl oxidase (Bos taurus, UniProt P33072); conditions: Tang et al., 1983; cited from earlier work
T3 sequence (P33072 170-418): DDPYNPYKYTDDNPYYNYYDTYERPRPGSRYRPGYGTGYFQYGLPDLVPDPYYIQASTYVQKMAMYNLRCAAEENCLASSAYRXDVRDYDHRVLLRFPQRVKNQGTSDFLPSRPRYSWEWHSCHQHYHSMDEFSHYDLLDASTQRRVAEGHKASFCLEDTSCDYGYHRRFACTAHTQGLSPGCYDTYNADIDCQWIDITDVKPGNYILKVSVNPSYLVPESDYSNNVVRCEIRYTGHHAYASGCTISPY

[10] = Hypohalous acid production by peroxidases (taurine haloamine trapping); type: biochemical; conditions: for hypohalous acid formation: 1×PBS plus 100 μM NaBr or without added Br—; for HOCl production: 1×PBS without added Br— (FIG. 3D)
Experimental: (§1) (FIG. 3A) SDS-PAGE of reactions consisting of 16 nM purified human peroxidasin (PXDN), 500 nM monomeric NC1 hexamer (3 μM potential crosslinks) and 10 μM H2O2 in 1×PBS. Control reactions without H2O2 or in the presence of the peroxidase inhibitor phloroglucinol (PHG; 50 μM) were also conducted. D represents crosslinked dimeric NC1 subunits, and M denotes uncrosslinked monomeric subunits. MW, molecular weight. (FIG. 3B) Coomassie blue-stained gel after SDS-PAGE of collagen IVNC1 hexamer is shown to illustrate relative amounts of sulfilimine-crosslinked dimeric (D) and uncrosslinked monomeric (M) subunits after incubation of uncrosslinked PFHR-9 basement membranes in varying buffer halide concentrations (Br— or Cl— as K+ salt) with or without 1 mM H2O2. (FIG. 3C) PXDN-mediated hypohalous acid (HOX) production expressed as nmol hypohalous acid generated per nmol enzyme per min, measured in 1×PBS plus 100 μM NaBr. Values represent mean±s.e.m. (n=3). (FIG. 3D) HOCl production measured directly in 1×PBS without added Br—. Values denote mean±s.e.m. (n=4). […] (FIG. 3E) HOX production, measured in nmol HOX generated per nmol enzyme per min for myeloperoxidase (MPO), eosinophil peroxidase (EPO) or LPO in 1×PBS plus 100 μM NaBr. Values represent mean±s.e.m. (n=3).
Hypohalous acids were trapped as stable taurine haloamines, which oxidize tetramethylbenzidine to yield a colorimetric measure of hypohalous acid concentration and production (Dypbukt et al., 2005).
Animal heme peroxidases, such as peroxidasin, myeloperoxidase, eosinophil peroxidase and lactoperoxidase, catalyze oxidative reactions using distinct halogenation and peroxidase cycles (Obinger, 2006). Both begin with hydrogen peroxide oxidation of the prosthetic heme iron to form an intermediate denoted compound I (Obinger, 2006). Compound I may oxidize halides into their respective hypohalous acids (or related oxidants in equilibrium), which may directly or indirectly halogenate susceptible moieties. Alternatively, compound I undergoes sequential reduction to form single electron-free radicals of energetically favorable substrates in the peroxidase cycle. Both pathways eventually regenerate reduced, native enzyme (Obinger, 2006). To determine whether peroxidasin forms sulfilimine bonds using a halogenation cycle, the inventors first tested whether peroxidasin crosslinks collagen IV in the absence of halides.

[11] = tested on: collagen IV NC1 hexamer; experiment: Purified peroxidases reacted with uncrosslinked NC1 hexamer and H2O2; type: biochemical, mouse; conditions: 16 nM enzyme, 500 nM NC1 hexamer, 10 μM H2O2, 1×PBS
Experimental: as §1
PHG, phloroglucinol; MW, molecular weight.
If peroxidasin uses hypohalous acids as intermediates to form sulfilimine bonds, these intermediates should recapitulate the reaction when directly added to purified, uncrosslinked collagen IV NC1 hexamer. […] Alternatively, other peroxidasesis provided to form reactive hypohalous acids.

In the case of Nc1nc[nH]n1 [3-aminotriazole], the “formation of collagen IV crosslinks” value [1] is given as “prevented formation of collagen IV crosslinks”, the “inhibition of thyroid peroxidase” value ([2]; 2 mM) is given as “near-complete inhibition” and the inhibition of myeloperoxidase ([3]; 10 mM) is given as “near-complete inhibition”.
In the case of [N-]=[N+]=[N-] [azide], the Ki [4] is given as 1470 µM and the kinact [4] is given as 0.69 min⁻¹.
For Cn1cc[nH]c1=S [methimazole], the “formation of collagen IV crosslinks” value [1] is listed as “prevented formation of collagen IV crosslinks”, the IC50 [2] is listed as 0.8 µM and the inhibition of myeloperoxidase ([3]; 3 mM) is listed as 70%.
In the case of Oc1cc(O)cc(O)c1 [phloroglucinol, reference compound], the IC50 [5] is given as 0.5 µM, the “crosslinking of native collagen IV network by overlaid cells” value [6] is given as “failed to crosslink collagen IV” and the “egg aspect ratio under peroxidasin inhibition” value [7] is given as “dose-dependent suppression in egg aspect ratio”. For the same compound, the “egg aspect ratio under peroxidasin inhibition” value ([7]; listed as PHG) was “dose-dependent reduction in the exaggerated egg elongation” and the “formation of collagen IV crosslinks” value [1] was “prevented formation of collagen IV crosslinks”.
For NCCCCN [putrescine], the Km [8] is listed as 26 to 847 µM and the “formation of collagen IV crosslinks” value [1] is listed as “had no effect”.
For N#CCCN [β-aminopropionitrile], the IC50 [9] is listed as 3 to 8 µM and the “formation of collagen IV crosslinks” value [1] is listed as “had no effect”.
In the case of “eosinophil peroxidase: animal heme peroxidase used as comparator”, the hypohalous acid formation [10] is reported as “primarily yielded hypobromous acid” and the “formation of sulfilimine crosslinks in NC1 hexamer” value (“formation of sulfilimine crosslinks” below) [11] is reported as “formed sulfilimine crosslinks in collagen IV”.
With “lactoperoxidase: animal heme peroxidase used as comparator” the hypohalous acid formation [10] was “formed neither hypohalous acid”, the HOCl production [10] was “not statistically different from zero” and the “formation of sulfilimine crosslinks” value [11] was “poorly catalyzed crosslink formation”.
With “peroxidasin: heterologously expressed and purified human peroxidasin, a basement membrane heme peroxidase” the “crosslinking of native collagen IV network by overlaid cells” value [6] was “Only peroxidasin formed sulfilimine bonds in collagen IV”, the hypohalous acid formation [10] was “formed hypobromous and hypochlorous acid at modest rates with a preference for bromide” and the HOCl production [10] was “significantly greater than that mediated by lactoperoxidase”. The “formation of sulfilimine crosslinks” value [11] was “robust formation of crosslinked dimeric subunits”.
